Twelve compounds from patent US11447466B2, “Substituted indole compounds useful as inhibitors of TLR7/8/9” (BRISTOL-MYERS SQUIBB COMPANY, priority 2017, dated 2022) can be followed below.

As a reminder, the IC50 is the concentration that inhibits the measured activity by half.

Holding throughout (assay type): cell-based
One test addresses T1, human TLR9 (Homo sapiens, UniProt Q9NR96).
T1 construct: host or cells: HEK-Blue cells
T1 sequence (Q9NR96 26-1032): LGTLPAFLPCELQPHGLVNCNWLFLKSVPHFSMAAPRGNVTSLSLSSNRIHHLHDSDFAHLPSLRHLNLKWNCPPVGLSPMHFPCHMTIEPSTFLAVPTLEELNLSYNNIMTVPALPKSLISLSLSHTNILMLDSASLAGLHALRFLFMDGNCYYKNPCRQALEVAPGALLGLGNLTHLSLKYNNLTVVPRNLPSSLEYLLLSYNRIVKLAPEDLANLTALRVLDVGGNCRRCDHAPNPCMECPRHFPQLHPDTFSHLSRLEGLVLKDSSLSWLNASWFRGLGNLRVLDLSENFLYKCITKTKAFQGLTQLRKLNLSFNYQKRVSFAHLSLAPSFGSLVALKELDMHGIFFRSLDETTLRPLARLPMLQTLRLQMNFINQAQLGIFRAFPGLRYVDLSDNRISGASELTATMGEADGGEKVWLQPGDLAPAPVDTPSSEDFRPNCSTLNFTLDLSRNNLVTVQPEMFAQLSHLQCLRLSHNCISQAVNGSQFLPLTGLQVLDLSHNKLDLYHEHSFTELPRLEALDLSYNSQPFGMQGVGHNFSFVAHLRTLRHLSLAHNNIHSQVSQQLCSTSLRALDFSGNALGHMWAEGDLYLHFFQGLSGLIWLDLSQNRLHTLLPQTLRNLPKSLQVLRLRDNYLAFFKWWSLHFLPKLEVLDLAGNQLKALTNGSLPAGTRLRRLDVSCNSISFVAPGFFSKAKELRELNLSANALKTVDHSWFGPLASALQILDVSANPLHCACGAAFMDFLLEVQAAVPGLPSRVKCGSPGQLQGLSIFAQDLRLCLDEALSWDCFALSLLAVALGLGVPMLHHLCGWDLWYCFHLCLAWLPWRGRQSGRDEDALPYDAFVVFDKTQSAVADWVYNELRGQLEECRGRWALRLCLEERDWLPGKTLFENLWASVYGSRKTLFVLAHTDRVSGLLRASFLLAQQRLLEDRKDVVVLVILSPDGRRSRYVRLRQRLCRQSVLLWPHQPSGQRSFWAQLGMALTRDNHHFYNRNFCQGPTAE
As to the kind of experiment: TLR9 inhibition reporter assay (HEK-Blue SEAP reporter, ODN2006 stimulation). The following applies: HEK-Blue cells overexpressing human TLR9, SEAP reporter, ODN2006 5 nM, 22 hour incubation. An outline of the steps:
(§1)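 Agonists used: gardiquimod 7.5 μM (TLR7), R848 15.9 μM (TLR8), ODN2006 5 nM (TLR9), added after 30 min room-temperature compound pre-treatment (0.05 nM–50 μM) of receptor-overexpressing HEK-Blue cells. SEAP reporter (NF-κB/AP-1 driven) read after 22 h at 37 °C; inhibition scaled between agonist+DMSO and reference-inhibitor wells.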

In a further test the target is T2, human TLR8 (Homo sapiens, UniProt Q9NR97).
T2 construct: host or cells: HEK-Blue cells
T2 sequence (Q9NR97 27-1041): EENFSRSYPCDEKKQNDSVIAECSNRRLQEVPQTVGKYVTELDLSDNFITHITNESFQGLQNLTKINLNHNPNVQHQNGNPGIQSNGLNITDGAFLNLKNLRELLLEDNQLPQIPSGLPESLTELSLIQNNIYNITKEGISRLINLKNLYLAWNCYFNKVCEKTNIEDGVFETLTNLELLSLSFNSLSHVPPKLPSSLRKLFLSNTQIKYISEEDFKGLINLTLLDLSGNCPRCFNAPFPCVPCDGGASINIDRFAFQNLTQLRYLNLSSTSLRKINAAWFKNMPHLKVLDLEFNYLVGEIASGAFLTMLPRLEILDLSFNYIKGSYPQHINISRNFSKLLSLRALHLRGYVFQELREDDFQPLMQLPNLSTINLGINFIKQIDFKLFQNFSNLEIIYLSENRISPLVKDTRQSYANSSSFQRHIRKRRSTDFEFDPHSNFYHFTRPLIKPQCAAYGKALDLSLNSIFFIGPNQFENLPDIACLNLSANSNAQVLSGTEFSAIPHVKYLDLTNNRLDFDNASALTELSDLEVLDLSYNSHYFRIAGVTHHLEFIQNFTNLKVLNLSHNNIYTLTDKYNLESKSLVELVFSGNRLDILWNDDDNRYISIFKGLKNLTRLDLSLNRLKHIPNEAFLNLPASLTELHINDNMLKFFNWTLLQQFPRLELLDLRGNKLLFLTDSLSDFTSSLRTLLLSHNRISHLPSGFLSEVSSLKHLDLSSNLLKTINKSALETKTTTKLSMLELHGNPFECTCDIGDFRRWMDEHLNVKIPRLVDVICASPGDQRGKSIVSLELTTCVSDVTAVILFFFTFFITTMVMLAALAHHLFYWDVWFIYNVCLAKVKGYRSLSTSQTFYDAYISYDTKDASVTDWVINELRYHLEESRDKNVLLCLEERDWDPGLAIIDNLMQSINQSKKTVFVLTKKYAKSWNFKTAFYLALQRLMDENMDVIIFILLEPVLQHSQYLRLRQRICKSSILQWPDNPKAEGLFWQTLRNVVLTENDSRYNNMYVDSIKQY
In words: TLR8 inhibition reporter assay (HEK-Blue SEAP reporter, R848 stimulation). The following applies: HEK-Blue cells overexpressing human TLR8, SEAP reporter, R848 15.9 μM, 22 hour incubation. An outline of the steps:
as §1
(In a reporter assay the amount or activity of a reporter protein is the signal.)

The target of a further test is T3, human TLR7 (Homo sapiens, UniProt Q9NYK1).
T3 construct: host or cells: HEK-Blue cells
T3 sequence (Q9NYK1 27-1049): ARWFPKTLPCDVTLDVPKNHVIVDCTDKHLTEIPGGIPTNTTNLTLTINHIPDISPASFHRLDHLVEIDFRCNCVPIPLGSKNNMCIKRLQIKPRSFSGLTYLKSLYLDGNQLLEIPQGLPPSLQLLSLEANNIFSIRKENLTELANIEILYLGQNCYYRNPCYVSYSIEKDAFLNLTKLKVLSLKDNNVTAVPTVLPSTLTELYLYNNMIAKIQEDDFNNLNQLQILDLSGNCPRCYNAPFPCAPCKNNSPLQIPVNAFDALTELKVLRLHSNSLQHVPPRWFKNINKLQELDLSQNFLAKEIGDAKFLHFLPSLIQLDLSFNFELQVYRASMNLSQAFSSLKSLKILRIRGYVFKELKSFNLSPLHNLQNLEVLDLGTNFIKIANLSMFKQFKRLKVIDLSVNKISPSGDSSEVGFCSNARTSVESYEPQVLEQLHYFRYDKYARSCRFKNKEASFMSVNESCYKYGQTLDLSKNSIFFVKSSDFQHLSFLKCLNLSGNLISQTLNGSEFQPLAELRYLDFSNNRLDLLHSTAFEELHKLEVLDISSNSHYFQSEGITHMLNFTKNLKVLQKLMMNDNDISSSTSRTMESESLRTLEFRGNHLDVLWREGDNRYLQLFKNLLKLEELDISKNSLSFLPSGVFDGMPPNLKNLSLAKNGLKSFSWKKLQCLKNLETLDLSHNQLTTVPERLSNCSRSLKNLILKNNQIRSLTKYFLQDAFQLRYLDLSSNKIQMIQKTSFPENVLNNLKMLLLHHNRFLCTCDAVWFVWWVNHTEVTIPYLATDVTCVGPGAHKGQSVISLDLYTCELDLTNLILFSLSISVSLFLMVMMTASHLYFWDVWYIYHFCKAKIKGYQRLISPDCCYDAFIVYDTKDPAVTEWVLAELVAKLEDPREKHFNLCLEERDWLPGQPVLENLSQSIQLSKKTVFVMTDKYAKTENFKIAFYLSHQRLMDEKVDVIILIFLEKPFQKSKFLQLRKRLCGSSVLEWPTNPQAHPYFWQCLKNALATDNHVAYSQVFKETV
As to the kind of experiment: TLR7 inhibition reporter assay (HEK-Blue SEAP reporter, gardiquimod stimulation). The following applies: HEK-Blue cells overexpressing human TLR7, SEAP reporter, gardiquimod 7.5 μM, 22 hour incubation. In a few lines:
as §1

With `Cc1ccc(-c2cc(-c3[nH]c4ccc(C5CCNCC5)cc4c3C(C)C)cn(C)c2=O)cc1` [Example 55, 5-(3-isopropyl-5-(piperidin-4-yl)-1H-indol-2-yl)-1-methyl-3-(p-tolyl) pyridin-2(1H)-one], the half-inhibitory concentration (IC50) at human TLR9 worked out at 2290 nM; at human TLR8, 203 nM; at human TLR7 it was 13.9 nM.

For the compound `CCCCN1CCC(c2ccc3[nH]c(-c4cn(C)c(=O)c(Cl)c4C)c(C(C)C)c3c2)CC1` [Example 251, 5-(5-(1-butylpiperidin-4-yl)-3-isopropyl-1H-indol-2-yl)-3-chloro-1,4-dimethylpyridin-2(1H)-one], the 50% inhibitory concentration (IC50) on human TLR9 amounted to 3530 nM; against human TLR8 it was 8.1 nM; at human TLR7, 3.5 nM.

Consider `Cc1cc(-c2[nH]c3ccc(C4CCN(C5CCC(C(C)(C)O)CC5)CC4)cc3c2C(C)C)cn(C)c1=O` (stereo not drawn) [Example 268, 5-(5-(1-(4-(2-hydroxypropan-2-yl)cyclohexyl)piperidin-4-yl)-3-isopropyl-1H-indol-2-yl)-1,3-dimethylpyridin-2(1H)-one], for which the figures for the IC50 at human TLR9, against human TLR8 and against human TLR7 were 2630 nM, 6.6 nM and 2.4 nM, respectively.

In the case of `Cc1c(-c2[nH]c3ccc(C4CCN(CC(=O)N(C)C)CC4)c(F)c3c2C(C)C)cn(C)c(=O)c1Cl` [Example 158, 2-(4-(2-(5-chloro-1,4-dimethyl-6-oxo-1,6-dihydropyridin-3-yl)-4-fluoro-3-isopropyl-1H-indol-5-yl)piperidin-1-yl)-N,N-dimethylacetamide], the IC50 on human TLR9 is 3530 nM; against human TLR8, 2.6 nM; on human TLR7 it was 6.6 nM.

Regarding `Cc1cc(-c2[nH]c3ccc(C4CCN(C5CCOCC5)CC4)cc3c2C(C)C)c(C)n(C)c1=O` [Example 210, 5-(3-isopropyl-5-(1-(tetrahydro-2H-pyran-4-yl)piperidin-4-yl)-1H-indol-2-yl)-1,3,6-trimethylpyridin-2(1H)-one], the figures for the IC50 at human TLR9, at human TLR8 and against human TLR7 were 5030 nM, 2.7 nM and 24.7 nM, respectively.

Take `CNC(=O)CN1CCC(c2ccc3[nH]c(-c4cn(C)c(=O)c(Cl)c4C)c(C(C)C)c3c2)CC1` [Example 153, 2-(4-(2-(5-chloro-1,4-dimethyl-6-oxo-1,6-dihydropyridin-3-yl)-3-isopropyl-1H-indol-5-yl)piperidin-1-yl)-N-methylacetamide]: the IC50 against human TLR9 is 7880 nM; against human TLR8, 12.6 nM; against human TLR7, 3.5 nM.

With `CNC(=O)CN1CCC(c2ccc3[nH]c(-c4cc(C)c(=O)n(C)c4)c(C(C)C)c3c2)CC1` [Example 117, 2-(4-(2-(1,5-dimethyl-6-oxo-1,6-dihydropyridin-3-yl)-3-isopropyl-1H-indol-5-yl)piperidin-1-yl)-N-methylacetamide], the IC50 was found to be 14000 nM against human TLR9, 5.3 nM against human TLR8 and 2 nM at human TLR7.

With `CCCN1CCC(c2ccc3[nH]c(-c4cn(C)c(=O)c(Cl)c4C)c(C(C)C)c3c2)CC1` [Example 242, 3-chloro-5-(3-isopropyl-5-(1-propylpiperidin-4-yl)-1H-indol-2-yl)-1,4-dimethylpyridin-2(1H)-one], the IC50 at human TLR9 is 2680 nM; against human TLR8 it was 5.1 nM; on human TLR7, 3.2 nM.

In the case of `CC(C)c1c(-c2cc(C(=O)N3CCCC3)c(=O)n(C)c2)[nH]c2ccc(C3CCNCC3)cc12` [Example 69, 5-(3-isopropyl-5-(piperidin-4-yl)-1H-indol-2-yl)-1-methyl-3-(pyrrolidine-1-carbonyl) pyridin-2(1H)-one], the IC50 against human TLR9 was not below 50000 nM; against human TLR8, 180 nM; against human TLR7, 333 nM.

Take `CCn1cc(-c2[nH]c3ccc(C4CCNCC4)cc3c2C(C)C)c(C)c(C)c1=O` [Example 26, 1-ethyl-5-(3-isopropyl-5-(piperidin-4-yl)-1H-indol-2-yl)-3,4-dimethylpyridin-2(1H)-one]: the IC50 is 1860 nM against human TLR9, 8.9 nM against human TLR8 and 12 nM at human TLR7.

As for `CNC(=O)CN1CCC(c2ccc3[nH]c(-c4cc(C)c(=O)n(C)n4)c(C(C)C)c3c2)CC1` [Example 118, 2-(4-(2-(1,5-dimethyl-6-oxo-1,6-dihydropyridazin-3-yl)-3-isopropyl-1H-indol-5-yl)piperidin-1-yl)-N-methylacetamide], the figures for the IC50 against human TLR9, against human TLR8 and at human TLR7 were 9640 nM, 14.5 nM and 18.6 nM, respectively.

Regarding `Cc1c(-c2[nH]c3ccc(C4CCN(C(CCO)CCO)CC4)cc3c2C(C)C)cn(C)c(=O)c1Cl` [Example 243, 3-chloro-5-(5-(1-(1,5-dihydroxypentan-3-yl)piperidin-4-yl)-3-isopropyl-1H-indol-2-yl)-1,4-dimethylpyridin-2(1H)-one], the results for the IC50 at human TLR9, at human TLR8 and against human TLR7 were 1770 nM, 9.1 nM and 1.4 nM, respectively.
